Laboratory results from patent publication US12510533B2, “Methods for treating multiple myeloma and the use of companion biomarkers for 4-(4-(4-(((2-(2,6-dioxopiperidin-3-yl)-1-oxoisoindolin-4-yl)oxy)methyl)benzyl)piperazin-1-yl)-3-fluorobenzonitrile” (Celgene Corporation, priority 2018, dated 2025).

Assays:
NCI-H929 cells = experiment: PBMC-induced MM cell lysis, PBMCs and MM cells both pretreated, versus single MM culture (NCI-H929); assay type: cell-based, human; conditions: PBMCs and MM cells both preincubated 72 hours
Protocol: Ninety-six-well dishes were pre-coated with anti-CD3 antibody (OKT3, 3 μg/mL) and incubated at 4° C. overnight before the start of the experiment. Frozen PBMC donor cells were thawed at 37° C. for 2 minutes in RPMI medium with 10% FBS and cell counts and viability were measured on the Vi-CELL analyzer. Peripheral blood mononuclear cells were washed and diluted to 1×10^6 cells/mL and dispensed into the compound-treated plates in a total volume of 200 μL. Cells were incubated with Compound 2 for 2 hours before being transferred onto anti-CD3-coated plates and incubated for an additional 72 hours. At the same time, MM cell lines (NCI-H929, H929-1051, OPM2, OPM2-P10) were diluted to a final concentration of 0.1×10^6 cells/mL and labeled with CellTrace CFSE according to manufacturer's instructions. Multiple myeloma cell lines were then dispensed into compound-treated plates at a total volume of 200 μL and incubated for 72 hours. After 72 hours, the PBMCs and MM cells were counted and transferred into a U-bottom 96-well plate at a final T:E ratio of 1:5. After 24 hours coculture, specific target cell lysis by PBMC mediated apoptosis was measured using Annexin V-AF647 and 7-AAD according to manufacturer's instructions and samples were run on the Attune NxT Cytometer. […]

IL-2 = IL-2 secretion from anti-CD3 antibody-stimulated healthy donor PBMCs; assay type: cell-based, human
Protocol: The immunomodulatory activity of Compound 2 on T cell receptor (TCR)-activated healthy PBMCs was assessed.
The effect of Compound 2 in combination with different concentrations of dexamethasone on the ability of PBMCs to produce IL-2 was explored. […]

Ikaros [1] = target: T1, Ikaros (Homo sapiens, UniProt Q13422+Q96SW2); experiment: Phase 1 study, Ikaros expression by flow cytometry in CD3+ T cells; assay type: in vivo; design: The effects of Compound 2 on the degradation of Ikaros in CD4+ and CD8+ T cells; endogenous in cells; CD34+ bone marrow cells of healthy donors; CD3+ T cells of multiple myeloma patients; conditions: QD days 1-10, 15-24/28 and BID days 1-3, 15-17/28; recovered during dosing interruptions
Protocol: FIG. 25A and FIG. 25B illustrate that Compound 2 induced Ikaros degradation in CD3+ T cells from peripheral blood of relapsed/refractory multiple myeloma patients after (FIG. 25A) the once daily (QD) 1-10, 15-24/28 schedule, or (FIG. 25B) the twice daily (BID) 1-3, 15-17/28 schedule.
Ikaros expression was measured by flow cytometry in CD3+ T cells before and during Compound 2 treatment in two different dosing schedules (QD administration on days 1 to 10 and days 15 to 24 of a 28 day cycle, and BID administration on days 1 to 3 and days 15 to 17 of a 28 day cycle).

Ikaros [2] = target: T1, Ikaros; experiment: Ikaros level by flow cytometry in ex vivo cultures of healthy donor bone marrow CD34+ cells (neutrophil maturation); assay type: cell-based; design: The effects of Compound 2 on the degradation of Ikaros in CD4+ and CD8+ T cells; endogenous in cells; host or cells: CD4+ and CD8+ T cells of healthy donors; CD34+ bone marrow cells of healthy donors; CD3+ T cells of multiple myeloma patients
Protocol: Ex vivo cultures of bone marrow (BM) CD34^+ cells from healthy donors (HD) were used to investigate the effect of Compound 2 on neutropenia. […] Therefore, we monitored the effects of Compound 2 on mature neutrophils.
Ikaros protein level was analyzed by flow cytometry after each exposure period, and also at Days 19, 21, and 23 corresponding to 3, 5, and 7 days following the last exposure, respectively. CD34^+ cells derived from healthy donor bone marrow were exposed to different concentrations of Compound 2 and different incubation schedules. The percentage of Ikaros content (normalized to the DMSO control) following Compound 2 exposure at concentrations of 1, 10, and 100 nM for 2, 4, and 6 hours on each of 1, 2, or 3 consecutive days starting on Day 14 were measured. At the end of the exposure period, Compound 2 was removed and cells were incubated in the absence of Compound 2 (recovery period). Ikaros was measured by flow cytometry after incubation with Compound 2 (Days 14 to 16) and during recovery on Days 19, 21, and 23. Ikaros levels were reduced during Compound 2 exposure and recovered following drug withdrawal in a concentration-dependent manner with no significant differences noted in association with different exposure schedules (FIG. 13). Ikaros levels began returning to normal after at least 3 days following washout, pre-dating full recovery of maturation of late-stage neutrophil precursors.
To further explore the role of Ikaros in relationship to the maturation of neutrophil progenitors, Ikaros protein levels were analyzed by flow cytometry after each exposure and every other day following the last exposure to Compound 2. […] After 3 days of exposure to Compound 2, the recovery of Ikaros began in a concentration-dependent manner just 24 hours after drug washout and returned to control levels after 10 days (FIG. 14; FIG. 16B). With 5 days of exposure to Compound 2, recovery of Ikaros started on Day 17, three days after drug washout (FIG. 15). […]

T1 sequence (Q13422 whole entry): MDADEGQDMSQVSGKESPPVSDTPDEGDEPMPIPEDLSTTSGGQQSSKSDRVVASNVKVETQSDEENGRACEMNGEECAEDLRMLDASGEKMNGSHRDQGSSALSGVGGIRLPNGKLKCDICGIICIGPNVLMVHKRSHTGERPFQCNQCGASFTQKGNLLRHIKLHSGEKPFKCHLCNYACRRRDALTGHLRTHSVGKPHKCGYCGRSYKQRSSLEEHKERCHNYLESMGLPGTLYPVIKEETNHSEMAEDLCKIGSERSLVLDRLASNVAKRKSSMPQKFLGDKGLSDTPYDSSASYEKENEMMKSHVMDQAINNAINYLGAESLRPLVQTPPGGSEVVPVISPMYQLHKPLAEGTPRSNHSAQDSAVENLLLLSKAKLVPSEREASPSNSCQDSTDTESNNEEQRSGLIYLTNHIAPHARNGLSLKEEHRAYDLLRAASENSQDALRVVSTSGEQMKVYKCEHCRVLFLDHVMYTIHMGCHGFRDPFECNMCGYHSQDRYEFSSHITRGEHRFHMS
T1 sequence (Q16531 2-1140, further chain): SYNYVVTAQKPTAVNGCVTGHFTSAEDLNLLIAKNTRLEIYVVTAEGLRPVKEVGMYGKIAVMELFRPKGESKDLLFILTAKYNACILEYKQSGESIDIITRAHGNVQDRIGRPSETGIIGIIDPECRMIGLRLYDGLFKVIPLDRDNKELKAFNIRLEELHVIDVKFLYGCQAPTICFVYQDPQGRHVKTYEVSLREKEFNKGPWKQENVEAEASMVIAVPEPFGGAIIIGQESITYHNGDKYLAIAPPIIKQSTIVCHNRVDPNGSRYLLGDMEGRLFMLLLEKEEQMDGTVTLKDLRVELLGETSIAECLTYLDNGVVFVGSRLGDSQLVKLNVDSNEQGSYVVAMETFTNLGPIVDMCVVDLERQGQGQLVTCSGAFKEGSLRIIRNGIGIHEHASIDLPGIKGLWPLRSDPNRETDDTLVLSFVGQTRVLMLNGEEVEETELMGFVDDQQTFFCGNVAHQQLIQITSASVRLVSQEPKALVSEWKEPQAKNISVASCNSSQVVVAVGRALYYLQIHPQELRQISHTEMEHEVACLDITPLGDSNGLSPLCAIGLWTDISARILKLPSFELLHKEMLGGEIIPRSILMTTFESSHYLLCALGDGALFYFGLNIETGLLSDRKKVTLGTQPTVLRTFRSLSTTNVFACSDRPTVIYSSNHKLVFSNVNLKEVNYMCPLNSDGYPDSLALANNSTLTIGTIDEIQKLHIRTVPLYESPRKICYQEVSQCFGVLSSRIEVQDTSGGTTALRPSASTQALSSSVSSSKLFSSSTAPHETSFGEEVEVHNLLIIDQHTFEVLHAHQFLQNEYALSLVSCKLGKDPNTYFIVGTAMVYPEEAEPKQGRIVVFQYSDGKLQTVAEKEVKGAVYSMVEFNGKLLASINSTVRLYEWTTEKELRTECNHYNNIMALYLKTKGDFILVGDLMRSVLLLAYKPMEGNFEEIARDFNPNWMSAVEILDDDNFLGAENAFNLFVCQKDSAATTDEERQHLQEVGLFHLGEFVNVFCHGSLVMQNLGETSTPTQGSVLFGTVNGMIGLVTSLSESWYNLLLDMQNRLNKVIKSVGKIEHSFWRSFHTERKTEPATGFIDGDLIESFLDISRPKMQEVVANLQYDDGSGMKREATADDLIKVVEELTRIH
T1 sequence (Q96SW2 whole entry): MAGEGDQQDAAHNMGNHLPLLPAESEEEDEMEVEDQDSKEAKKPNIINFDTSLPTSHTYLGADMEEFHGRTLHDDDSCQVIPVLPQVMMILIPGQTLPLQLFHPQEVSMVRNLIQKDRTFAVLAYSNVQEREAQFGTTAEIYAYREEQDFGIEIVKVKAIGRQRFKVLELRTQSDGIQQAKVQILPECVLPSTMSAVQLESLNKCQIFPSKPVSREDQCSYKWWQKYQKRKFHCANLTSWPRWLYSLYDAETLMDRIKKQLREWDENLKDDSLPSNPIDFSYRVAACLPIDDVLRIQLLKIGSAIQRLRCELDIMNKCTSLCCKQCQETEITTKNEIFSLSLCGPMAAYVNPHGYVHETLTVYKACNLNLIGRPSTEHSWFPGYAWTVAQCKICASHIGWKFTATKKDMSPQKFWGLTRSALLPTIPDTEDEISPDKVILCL

`N#Cc1ccc(N2CCN(Cc3ccc(COc4cccc5c4CN([C@H]4CCC(=O)NC4=O)C5=O)cc3)CC2)c(F)c1` [Compound 2, (S)-4-(4-(4-(((2-(2,6-dioxopiperidin-3-yl)-1-oxoisoindolin-4-yl)oxy)methyl)benzyl)piperazin-1-yl)-3-fluorobenzonitrile] was tested, and the “enhancement of killing, IC50 of single MM culture versus immune and tumor cell co-culture” value (NCI-H929 cells) was ~7000 fold, the “peak IL-2 production above the vehicle control” value (IL-2; 24 hours) was 5.5 fold and the EC50 (IL-2; Homo sapiens, PBMC, 72 h, read-out: IL-2 secretion, mean half-maximal effective concentration (EC50)) was 0.014 nM. For the same compound, the “Compound 2 concentration at peak IL-2 response” value (IL-2; in combination with 10 nM dexamethasone) was 10 pM, the “IL-2 induction above the vehicle control” value (IL-2; in combination with 10 nM dexamethasone, 4 donors, 72 hours) was “at least 10 fold” and the IL-2 induction (IL-2; in combination with 100 nM dexamethasone) was “little induction of IL-2 above baseline”. For the same compound, the “Ikaros degradation in CD3+ T cells” value (Ikaros [1]) was “dose dependent”, the “time following washout at which Ikaros levels began returning to normal” value (Ikaros [2]; 2, 4, 6 hour exposures on 1 to 3 consecutive days from Day 14) was “at least 3 days” and the “time for Ikaros to return to control levels” value (Ikaros [2]; 3 days of 6-hour exposures) was 10 days. For the same compound, the “Ikaros degradation after one exposure” value (Ikaros [2]; all concentrations (1, 10, 100 nM) and all exposure schedules) was “fully degraded”.
